What was measured:
[1] = tested on: BALF cells; experiment: Ovalbumine model, bronchoalveolar lavage cell counts; format: in vivo, BALB/c mice; details: inhalation 5 mM; for Neurophil: OVA 1.0 ± 0.2; for Lymphocyte / monocyte: OVA 2.4 ± 0.3; for (Table 5) / Eosinophil: OVA 37.2 ± 2.8; for Total cells: OVA 65.3 ± 3.4
Description: (§1) In this long-term experiment, 6-8 week old BALB/c female mice were sensitized on days 1 and 8 by intra-peritoneal injection (i.p.) of ovalbumine (10 μg) (Sigma-Aldrich, Schnelldorf, Germany) adsorbed to 2 mg aluminum hydroxide (AlumInject; Perbio, Erembodegem, Belgium). Mice were divided into three groups. In Group 1, a control group was only exposed to saline nebulization by aerosol. The other 2 groups were subjected to ovalbumine (1%) nebulization. Before each challenge with ovalbumine, mice were either exposed to saline nebulization (Group 2) or KMUP-1 nebulization (5 mM) for 30 min by aerosol (Group 3).
After the sacrifice of mice, a cannula was placed in the trachea for bronchoalveolar lavage by gentle manual aspiration, using cold PBS-EDTA (0.05 mM, 1 ml) (Calbiochem, Darmstadt, Germany) as previously described (Cataldo D D, et al., 2002). The broncho alveolar lavage fluid (BALF) was centrifuged at 4° C. for 10 min (1200 rpm). The supernatant was frozen at −80° C. for protein assessment and the cell pellet was resuspended in PBS-EDTA (0.05 mM, 1 ml). Total cell counts were performed manually using a thoma chamber. The differential cell counts were performed using morphologic criteria on cytocentrifuged preparations (Cytospin) after staining with Diff-Quick (Dade, Belgium). Differential cell counts were performed by one blinded observer unaware of the experimental treatment.

[2] = tested on: IL-13; experiment: Ovalbumine model, plasma IL-13 (ELISA); format: in vivo, mice; details: OVA-sens, OVA-sens alone 35 ± 6
Description: as §1

[3] = tested on: eNOS; experiment: Protein expression (optical density %) after KMUPs salts, eNOS; format: cell-based; details: 10 μM, 120 min; without treatment control 100 %
[4] = tested on: ROCKII; experiment: Protein expression (optical density %) after KMUPs salts, ROCKII; format: cell-based; details: 10 μM, 120 min; without treatment control 100 %
[5] = tested on: iNOS; experiment: Ovalbumine model, iNOS expression; format: in vivo, BALB/c mice; details: non-treatment allergic animal 100 %
[6] = tested on: PDE-5A; experiment: Protein expression (optical density %) after KMUPs salts, PDE-5A; format: cell-based; details: 10 μM, 120 min; without treatment control 100 %
[7] = tested on: MMP-9; experiment: Ovalbumine model, MMP-9 expression, zymography and immunostaining; format: in vivo, BALB/c mice; details: inhalation 5 mM; non-treatment allergic animal 100 %
Description: as §1
The gelatinolytic activity of MMP-9 was measured by gelatin zymography as described previously (Cataldo D D, et al., 2002). Briefly, BALF (10 μl) was subjected to electrophoresis in 10% polyacrylamide gel containing gelatin (1 mg/ml). The gel was washed in 2.5% Triton X-100 to permit re-naturation of gelatinases and stained with Coomassie blue after overnight incubation. Destaining visualized clear zones of lysis against a blue background indicated the gelatinase activity (Hibbs, M S, et al., 1985).
The lung tissues were homogenized, washed with PBS and incubated in lysis buffer in addition to a protease inhibitor cocktail (Sigma, St. Louis, Mo.) to obtain extracts of lung proteins. A Western blot analysis was performed as described previously (Wu B N, et al., 2006). The samples were loaded to 10% SDS-PAGE gels and were separated at 120 V for 90 min. The blots were incubated with anti-eNOS antibody diluted at a ratio of 1:500, anti-sGCα1 antibody diluted at a ratio of 1:2000, anti-PKG antibody diluted at a ratio of 1:500, anti-VCAM-1 antibody diluted at a ratio of 1:500, anti-ICAM-1 antibody diluted at a ratio of 1:500, and anti-MMP-9 antibody diluted at a ratio of 1:600 overnight at 4° C. The membranes were stripped and re-blotted with anti-actin antibody (Sigma, St. Louis, Mo.) to verify the equal loading of protein in each lane.
Immunohistochemical analysis of eNOS enhancement by KMUP-1 was performed as follows. The lungs were perfused with saline followed by 10% formalin and then placed in 10% formalin for paraffin embedding. The lung tissues were cut into […] sections onto slides, dewaxed in 100% xylene, and then re-hydrated in graded alcohol solutions. Throughout the procedures, slides were washed as appropriate in PBS. Antigen retrieval was performed by microwave treatment for eNOS immunostaining. Sections were treated with 3% H2O2 (10 min) to inhibit endogenous peroxidases and incubated with normal serum (60 min) to reduce nonspecific binding of secondary antibodies. Sections were then incubated at 4° C. overnight with eNOS antibodies. After washing off unbounded primary antibodies, sections were incubated with secondary biotinylated antibodies against mouse or rabbit (DAKO Co., Japan) (60 min), followed by incubation in avidin/biotin/horseradish peroxidase complex (DAKO Co., Japan) (30 min) Subsequently, peroxidase activity was visualized by incubation (3 min) with 0.05% 3,3′-diaminobenzidine (DAKO Co., Japan), which gives a brown reaction product. The reaction was stopped by washing with water. The slides were counterstained with hematoxylin. For immunostaining of MMP-9 in lung tissue, the de-paraffinized 3-5 μm sections of lung tissue was performed as above eNOS, but using MMP-9 antibody.

[8] = tested on: IL-5; experiment: Ovalbumine model, plasma IL-5 (ELISA); format: in vivo, mice; details: OVA-sens, OVA-sens alone 43 ± 6
Description: as §1

[9] = tested on: MMP-9; experiment: Ovalbumine model, MMP-9 expression, zymography and immunostaining; format: in vivo, BALB/c mice; details: oral 2.5 mg Kg^−1; non-treatment allergic animal 100 %
[10] = tested on: BALF cells; experiment: Ovalbumine model, bronchoalveolar lavage cell counts; format: in vivo, BALB/c mice; details: oral 2.5 mg Kg^−1; for Neurophil: OVA 1.0 ± 0.2; for Lymphocyte / monocyte: OVA 2.4 ± 0.3; for (Table 5) / Eosinophil: OVA 37.2 ± 2.8; for Total cells: OVA 65.3 ± 3.4

Structure (SMILES)	Neurophil [1]	Lymphocyte [1]	monocyte [1]	(Table 5) [1]	Eosinophil [1]	Total cells [1]	eNOS protein expression, optical densitivity % [3] [%]	ROCKII protein expression, optical densitivity % [4] [%]	iNOS ([5]; inhalation 5 mM) [%]	PDE-5A protein expression, optical densitivity % [6] [%]	MMP-9 [7] [%]	iNOS ([5]; oral 2.5 mg Kg^−1) [%]	MMP-9 [9] [%]	Neurophil [10]	Lymphocyte [10]	monocyte [10]	(Table 5) [10]	Eosinophil [10]	Total cells [10]	further results
Cl.Cn1c(=O)c2c(ncn2CCN2CCN(c3ccccc3Cl)CC2)n(C)c1=O [KMUP-1 HCl, 7-[2-[4-(2-chlorophenyl)piperazinyl]ethyl]-1,3-dimethylxanthine HCl]	1.0 ± 0.2 × 10^4 cell/ml	1.5 ± 0.3 × 10^4 cell/ml	1.5 ± 0.3 × 10^4 cell/ml	23.7 ± 2.8 × 10^4 cell/ml	23.7 ± 2.8 × 10^4 cell/ml	50.6 ± 2.4 × 10^4 cell/ml	155 ± 14.8	42 ± 6.3	55 ± 14.8	64 ± 4.5	42 ± 6.3	–	–	–	–	–	–	–	–	IL-13 ([2]; inhalation 5 mM): 14 ± 5 pg/mL; IL-5 ([8]; inhalation 5 mM): 31 ± 6 pg/mL
Cn1c(=O)c2c(ncn2CCN2CCN(c3ccccc3Cl)CC2)n(C)c1=O.O=C(O)CC(O)(CC(=O)O)C(=O)O [KMUP-1-citric acid, 7-[2-[4-(2-chlorobenzene)piperazinyl]ethyl]-1,3-dimethylxanthine-Citric acid]	–	–	–	–	–	–	152 ± 13.6	43 ± 3.8	–	66 ± 5.2	–	–	–	–	–	–	–	–	–	–
Cn1c(=O)c2c(ncn2CCN2CCN(c3ccccc3Cl)CC2)n(C)c1=O.O=C(O)c1cccnc1 [KMUP-1-nicotinic acid, 7-[2-[4-(2-chlorobenzene)piperazinyl]ethyl]-1,3-dimethylxanthine-Nicotinic acid]	–	–	–	–	–	–	158 ± 12.4	41 ± 2.5	–	62 ± 4.8	–	–	–	–	–	–	–	–	–	–
COc1ccccc1N1CCN(CCn2cnc3c2c(=O)n(C)c(=O)n3C)CC1.Cl [KMUP-2 HCl, 7-[2-[4-(2-methoxybenzene)piperazinyl]ethyl]-1,3-dimethylxanthine hydrochloride]	1.0 ± 0.4 × 10^4 cell/ml	1.2 ± 3.7 × 10^4 cell/ml	1.2 ± 3.7 × 10^4 cell/ml	25 ± 2.2 × 10^4 cell/ml	25 ± 2.2 × 10^4 cell/ml	51.0 ± 0.4 × 10^4 cell/ml	–	40 ± 3.7	47 ± 8.6	68 ± 5.3	40 ± 3.7	–	–	–	–	–	–	–	–	IL-13 ([2]; inhalation 5 mM): 15 ± 3 pg/mL; IL-5 ([8]; inhalation 5 mM): 32 ± 6 pg/mL
COc1ccccc1N1CCN(CCn2cnc3c2c(=O)n(C)c(=O)n3C)CC1.O=C(O)CC(O)(CC(=O)O)C(=O)O [KMUP-2-citric acid, 7-[2-[4-(2-methoxybenzene)piperazinyl]ethyl]-1,3-dimethylxanthine-Citric acid]	–	–	–	–	–	–	–	40 ± 3.7	–	71 ± 5.4	–	–	–	–	–	–	–	–	–	–
Cl.Cn1c(=O)c2c(ncn2CCN2CCN(c3ccc([N+](=O)[O-])cc3)CC2)n(C)c1=O [KMUP-3 HCl, 7-[2-[4-(4-nitrobenzene)piperazinyl]ethyl]-1,3-dimethyl xanthine HCl]	1.0 ± 0.3 × 10^4 cell/ml	1.3 ± 0.6 × 10^4 cell/ml	1.3 ± 0.6 × 10^4 cell/ml	24 ± 3.5 × 10^4 cell/ml	24 ± 3.5 × 10^4 cell/ml	52.1 ± 0.2 × 10^4 cell/ml	148 ± 7.5	44 ± 2.9	48 ± 7.5	63 ± 5.2	44 ± 2.9	45 ± 7.5	43 ± 1.6	1.1 ± 0.3 × 10^4 cell/ml	1.7 ± 2.8 × 10^4 cell/ml	1.7 ± 2.8 × 10^4 cell/ml	25 ± 2.5 × 10^4 cell/ml	25 ± 2.5 × 10^4 cell/ml	51.2 ± 0.3 × 10^4 cell/ml	–
Cn1c(=O)c2c(ncn2CCN2CCN(c3ccc([N+](=O)[O-])cc3)CC2)n(C)c1=O.O=C(O)c1cccnc1 [KMUP-3-nicotinic acid, 7-[2-[4-(4-nitrobenzene)piperazinyl]ethyl]-1,3-dimethylxanthine-Nicotinic acid]	–	–	–	–	–	–	145 ± 7.5	43 ± 1.6	–	60 ± 4.1	–	–	–	–	–	–	–	–	–	–
Cl.Cn1c(=O)c2c(ncn2CCN2CCN(c3ccccc3[N+](=O)[O-])CC2)n(C)c1=O [KMUP-4 HCl, 7-[2-[4-(2-nitrobenzene)piperazinyl]ethyl]-1,3-dimethylxanthine hydrochloride]	1.1 ± 0.2 × 10^4 cell/ml	1.6 ± 3.4 × 10^4 cell/ml	1.6 ± 3.4 × 10^4 cell/ml	21 ± 6.7 × 10^4 cell/ml	21 ± 6.7 × 10^4 cell/ml	53.4 ± 0.3 × 10^4 cell/ml	135 ± 7.5	37 ± 2.8	35 ± 7.5	73 ± 3.4	37 ± 2.8	31 ± 6.7	56 ± 3.4	1.1 ± 0.3 × 10^4 cell/ml	1.7 ± 1.8 × 10^4 cell/ml	1.7 ± 1.8 × 10^4 cell/ml	20 ± 3.5 × 10^4 cell/ml	20 ± 3.5 × 10^4 cell/ml	51.8 ± 0.4 × 10^4 cell/ml	–
Cn1c(=O)c2c(ncn2CCN2CCN(c3ccccc3[N+](=O)[O-])CC2)n(C)c1=O.O=C(O)CC(O)(CC(=O)O)C(=O)O [KMUP-4-citric acid, 7-[2-[4-(2-nitrobenzene)piperazinyl]ethyl]-1,3-dimethylxanthine-Citric acid]	–	–	–	–	–	–	131 ± 6.7	56 ± 3.4	–	78 ± 3.6	–	–	–	–	–	–	–	–	–	–
CCC(C)(C)C(=O)O[C@H]1C[C@@H](C)C=C2C=C[C@H](C)[C@H](CC[C@@H]3C[C@@H](O)CC(=O)O3)[C@H]21 [Simvastatin, reference compound]	–	–	–	–	–	–	–	–	–	–	–	58 ± 12.4	41 ± 2.5	1.5 ± 0.4 × 10^4 cell/ml	1.8 ± 0.7 × 10^4 cell/ml	1.8 ± 0.7 × 10^4 cell/ml	27 ± 1.6 × 10^4 cell/ml	27 ± 1.6 × 10^4 cell/ml	52.5 ± 0.4 × 10^4 cell/ml	IL-13 ([2]; oral 2.5 mg Kg^−1): 41 ± 2.5 pg/mL; IL-5 ([8]; oral 2.5 mg Kg^−1): 158 ± 12.4 pg/mL
